Measurements from the CheMixHub viscosity set.

Assay: xn = mol fraction of the nth substance listed

ClC(Cl)Cl + C1COCCO1
Conditions	viscosity [mPa·s]
293.15 K, 101.33 kPa, x1 = 0.152	1.199
293.15 K, 101.33 kPa, x1 = 0.2726	1.129
293.15 K, 101.33 kPa, x1 = 0.3876	1.063
293.15 K, 101.33 kPa, x1 = 0.4413	1.035
293.15 K, 101.33 kPa, x1 = 0.516	0.992
293.15 K, 101.33 kPa, x1 = 0.6385	0.919
293.15 K, 101.33 kPa, x1 = 0.7409	0.819
293.15 K, 101.33 kPa, x1 = 0.8856	0.677
298.15 K, 101 kPa, x1 = 0.2	1.08
298.15 K, 101 kPa, x1 = 0.4	0.981
298.15 K, 101 kPa, x1 = 0.6	0.865
298.15 K, 101 kPa, x1 = 0.8	0.703
298.15 K, 101.33 kPa, x1 = 0.152	1.073
298.15 K, 101.33 kPa, x1 = 0.2726	1.018
298.15 K, 101.33 kPa, x1 = 0.3876	0.964
298.15 K, 101.33 kPa, x1 = 0.4413	0.952
298.15 K, 101.33 kPa, x1 = 0.516	0.905
298.15 K, 101.33 kPa, x1 = 0.6385	0.837
298.15 K, 101.33 kPa, x1 = 0.7409	0.774
298.15 K, 101.33 kPa, x1 = 0.8856	0.658
303.15 K, 101 kPa, x2 = 0.0995	0.59
303.15 K, 101 kPa, x2 = 0.1981	0.672
303.15 K, 101 kPa, x2 = 0.2998	0.75
303.15 K, 101 kPa, x2 = 0.3953	0.801
303.15 K, 101 kPa, x2 = 0.4992	0.857
303.15 K, 101 kPa, x2 = 0.5971	0.91
303.15 K, 101 kPa, x2 = 0.6993	0.956
303.15 K, 101 kPa, x2 = 0.8015	0.997
303.15 K, 101 kPa, x2 = 0.9021	1.044
303.15 K, 101.33 kPa, x1 = 0.2137	1.007
303.15 K, 101.33 kPa, x1 = 0.3447	0.949
303.15 K, 101.33 kPa, x1 = 0.4212	0.934
303.15 K, 101.33 kPa, x1 = 0.4813	0.886
303.15 K, 101.33 kPa, x1 = 0.5194	0.879
303.15 K, 101.33 kPa, x1 = 0.5698	0.844
303.15 K, 101.33 kPa, x1 = 0.7088	0.752

O=C(O)CCl + C[N+](C)(C)CCO.[Cl-]
101 kPa, x2 = 0.333
Conditions	viscosity [mPa·s]
293.15 K	161
298.15 K	117.9
303.15 K	88.59
308.15 K	68.11
313.15 K	53.44
318.15 K	42.65
323.15 K	34.65

ClC(Cl)Cl + COC(=O)OC
viscosity [mPa·s], 101.33 kPa
Conditions	x2 = 0.0987	x2 = 0.2134	x2 = 0.3031	x2 = 0.4027	x2 = 0.5031	x2 = 0.6187	x2 = 0.7021	x2 = 0.7996	x2 = 0.9013
298.15 K	0.528	0.553	0.566	0.57	0.565	0.559	0.546	0.545	0.541
303.15 K	0.501	0.525	0.53	0.536	0.531	0.523	0.514	0.513	0.509
308.15 K	0.475	0.494	0.504	0.507	0.502	0.493	0.484	0.48	0.48

CC(=O)OCc1ccccc1 + CCc1ccccc1
viscosity [mPa·s], 101 kPa
Conditions	x1 = 0.0913	x1 = 0.176	x1 = 0.2732	x1 = 0.3687	x1 = 0.467	x1 = 0.5592	x1 = 0.6706	x1 = 0.7597	x1 = 0.8652	x1 = 0.9304
303.15 K	0.643	0.692	0.755	0.825	0.912	1.006	1.133	1.265	1.428	1.526
313.15 K	0.577	0.616	0.663	0.717	0.784	0.845	0.943	1.033	1.156	1.233
